In patent publication US11739098B2 (BRISTOL-MYERS SQUIBB COMPANY, priority 2017, dated 2023):
pIC50: −log10 of the molar value.

Experiments:
Assay type in all cases: cell-based
human TLR8 = biological target: T1, human TLR8 (Homo sapiens, UniProt Q9NR97); assay: TLR8 inhibition reporter assay (HEK-Blue cells, SEAP reporter, R848 stimulation); conditions: HEK-Blue cells overexpressing human TLR8, SEAP reporter, R848 15.9 μM
T1 construct: host or cells: HEK-Blue cells (HEK293-derived reporter line)
T1 sequence (Q9NR97 27-1041): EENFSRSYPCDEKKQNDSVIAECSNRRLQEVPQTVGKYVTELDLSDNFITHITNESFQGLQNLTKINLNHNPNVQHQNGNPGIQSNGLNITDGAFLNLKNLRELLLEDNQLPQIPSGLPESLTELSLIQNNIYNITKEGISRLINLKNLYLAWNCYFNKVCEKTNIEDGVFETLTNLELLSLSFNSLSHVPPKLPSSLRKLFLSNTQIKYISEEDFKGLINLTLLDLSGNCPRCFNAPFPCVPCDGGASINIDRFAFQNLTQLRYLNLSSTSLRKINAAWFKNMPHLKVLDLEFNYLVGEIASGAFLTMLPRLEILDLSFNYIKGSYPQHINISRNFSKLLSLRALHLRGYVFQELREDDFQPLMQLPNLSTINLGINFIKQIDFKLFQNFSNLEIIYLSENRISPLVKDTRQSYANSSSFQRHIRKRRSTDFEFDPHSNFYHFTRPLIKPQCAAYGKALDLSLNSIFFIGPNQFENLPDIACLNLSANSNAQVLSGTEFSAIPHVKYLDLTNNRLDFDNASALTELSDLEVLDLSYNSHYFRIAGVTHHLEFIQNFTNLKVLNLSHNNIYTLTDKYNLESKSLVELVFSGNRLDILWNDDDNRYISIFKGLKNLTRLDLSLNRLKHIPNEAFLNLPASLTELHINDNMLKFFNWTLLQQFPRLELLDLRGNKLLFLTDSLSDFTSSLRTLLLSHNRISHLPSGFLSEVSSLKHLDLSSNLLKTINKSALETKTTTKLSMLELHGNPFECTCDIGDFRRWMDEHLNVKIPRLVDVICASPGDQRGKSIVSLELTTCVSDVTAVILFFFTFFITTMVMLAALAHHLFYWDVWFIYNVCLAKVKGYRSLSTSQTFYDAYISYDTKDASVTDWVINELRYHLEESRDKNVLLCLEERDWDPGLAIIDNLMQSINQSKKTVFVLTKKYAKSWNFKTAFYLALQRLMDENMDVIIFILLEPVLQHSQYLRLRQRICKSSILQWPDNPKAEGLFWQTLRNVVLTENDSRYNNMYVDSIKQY
Summary of the method: (§1)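 Read-out is SEAP activity in HEK-Blue detection medium after 22 h at 37 °C, converted to percent inhibition against agonist-plus-DMSO and reference-inhibitor controls. Cells saw compound (0.05 nM–50 μM, 30 min, room temperature) before gardiquimod 7.5 μM, R848 15.9 μM or ODN2006 5 nM for TLR7, TLR8 and TLR9, respectively.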

human TLR9 = biological target: T2, human TLR9 (Homo sapiens, UniProt Q9NR96); assay: TLR9 inhibition reporter assay (HEK-Blue cells, SEAP reporter, ODN2006 stimulation); conditions: HEK-Blue cells overexpressing human TLR9, SEAP reporter, ODN2006 5 nM
T2 construct: host or cells: HEK-Blue cells (HEK293-derived reporter line)
T2 sequence (Q9NR96 26-1032): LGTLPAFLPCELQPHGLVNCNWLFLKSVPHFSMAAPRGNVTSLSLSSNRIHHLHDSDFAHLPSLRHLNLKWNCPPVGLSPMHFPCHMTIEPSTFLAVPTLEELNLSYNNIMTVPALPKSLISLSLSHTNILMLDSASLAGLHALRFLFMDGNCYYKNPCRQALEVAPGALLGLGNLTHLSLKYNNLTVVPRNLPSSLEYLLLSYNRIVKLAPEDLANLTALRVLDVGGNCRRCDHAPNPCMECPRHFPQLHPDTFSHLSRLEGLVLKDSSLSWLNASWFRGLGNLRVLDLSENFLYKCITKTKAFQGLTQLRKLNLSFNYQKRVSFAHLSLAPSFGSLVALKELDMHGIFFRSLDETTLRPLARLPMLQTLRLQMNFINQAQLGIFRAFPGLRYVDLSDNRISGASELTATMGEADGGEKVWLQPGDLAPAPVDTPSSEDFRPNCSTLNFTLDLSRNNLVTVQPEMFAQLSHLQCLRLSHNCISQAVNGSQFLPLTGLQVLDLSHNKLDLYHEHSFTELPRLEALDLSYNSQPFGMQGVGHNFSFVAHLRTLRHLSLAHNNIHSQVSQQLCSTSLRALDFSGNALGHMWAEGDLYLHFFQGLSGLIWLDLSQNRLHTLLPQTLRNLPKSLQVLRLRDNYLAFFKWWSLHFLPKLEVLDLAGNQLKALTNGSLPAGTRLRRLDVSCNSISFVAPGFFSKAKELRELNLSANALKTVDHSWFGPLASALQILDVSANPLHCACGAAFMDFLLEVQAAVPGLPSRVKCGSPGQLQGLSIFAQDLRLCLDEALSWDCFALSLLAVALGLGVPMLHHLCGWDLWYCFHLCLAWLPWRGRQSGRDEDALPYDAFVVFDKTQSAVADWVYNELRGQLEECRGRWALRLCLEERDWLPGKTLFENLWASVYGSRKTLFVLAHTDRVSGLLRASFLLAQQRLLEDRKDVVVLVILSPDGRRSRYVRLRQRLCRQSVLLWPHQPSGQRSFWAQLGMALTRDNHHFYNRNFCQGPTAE
Summary of the method: as §1

human TLR7 = biological target: T3, human TLR7 (Homo sapiens, UniProt Q9NYK1); assay: TLR7 inhibition reporter assay (HEK-Blue cells, SEAP reporter, gardiquimod stimulation); conditions: HEK-Blue cells overexpressing human TLR7, SEAP reporter, gardiquimod 7.5 μM
T3 construct: host or cells: HEK-Blue cells (HEK293-derived reporter line)
T3 sequence (Q9NYK1 27-1049): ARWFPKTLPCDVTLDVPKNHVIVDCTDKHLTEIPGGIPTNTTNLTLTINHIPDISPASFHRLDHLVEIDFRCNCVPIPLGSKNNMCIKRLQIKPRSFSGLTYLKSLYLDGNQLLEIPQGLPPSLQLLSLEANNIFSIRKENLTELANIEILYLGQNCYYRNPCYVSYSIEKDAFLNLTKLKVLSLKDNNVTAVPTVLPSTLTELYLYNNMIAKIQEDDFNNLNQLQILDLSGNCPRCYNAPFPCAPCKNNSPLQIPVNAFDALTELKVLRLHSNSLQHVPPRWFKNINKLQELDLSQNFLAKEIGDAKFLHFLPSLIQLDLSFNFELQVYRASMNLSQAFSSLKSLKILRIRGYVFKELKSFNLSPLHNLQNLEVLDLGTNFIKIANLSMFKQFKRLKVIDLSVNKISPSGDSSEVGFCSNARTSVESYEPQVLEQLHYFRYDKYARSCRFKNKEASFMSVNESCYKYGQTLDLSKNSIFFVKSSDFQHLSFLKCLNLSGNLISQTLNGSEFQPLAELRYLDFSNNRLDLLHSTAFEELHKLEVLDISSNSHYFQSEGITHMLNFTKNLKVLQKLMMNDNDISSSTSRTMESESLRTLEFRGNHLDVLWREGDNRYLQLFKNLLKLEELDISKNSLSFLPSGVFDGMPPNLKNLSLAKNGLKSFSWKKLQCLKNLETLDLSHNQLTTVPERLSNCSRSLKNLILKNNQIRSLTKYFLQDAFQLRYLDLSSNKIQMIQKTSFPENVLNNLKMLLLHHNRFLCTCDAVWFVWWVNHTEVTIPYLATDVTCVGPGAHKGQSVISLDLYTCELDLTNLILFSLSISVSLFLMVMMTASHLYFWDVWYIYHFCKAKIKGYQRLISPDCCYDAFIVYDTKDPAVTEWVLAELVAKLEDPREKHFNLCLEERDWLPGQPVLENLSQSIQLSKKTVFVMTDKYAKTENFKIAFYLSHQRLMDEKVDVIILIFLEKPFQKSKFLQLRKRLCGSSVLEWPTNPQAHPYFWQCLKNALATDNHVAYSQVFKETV
Summary of the method: as §1

CC(C)c1c(-c2ccnc3[nH]ncc23)[nH]c2ccc(C3CCN(CCCN4CCOCC4)CC3)cc12 [Example 857, 4-(3-(4-(3-isopropyl-2-(1H-pyrazolo[3,4-b]pyridin-4-yl)-1H-indol-5-yl)piperidin-1-yl)propyl)morpholine]
pIC50 (human TLR8): 4.30 to 6.00
pIC50 (human TLR9): 6.00 to 7.00
pIC50 (human TLR7): 4.30 to 6.00

CC(C)c1c(-c2ccc3nccn3c2)[nH]c2ccc(C3CCN(C(C)C)CC3)cc12 [Example 946, 6-(3-isopropyl-5-(1-isopropylpiperidin-4-yl)-1H-indol-2-yl)imidazo[1,2-a]pyridine]
pIC50 (human TLR8): > 7.00
pIC50 (human TLR9): 6.00 to 7.00
pIC50 (human TLR7): > 7.00

CC(=O)N1CCC[C@H]1C(=O)N1CCC(c2ccc3[nH]c(-c4ccnc5[nH]ncc45)c(C(C)C)c3c2)CC1 [Example 566, (S)-1-(2-(4-(3-isopropyl-2-(1H-pyrazolo[3,4-b]pyridin-4-yl)-1H-indol-5-yl)piperidine-1-carbonyl)pyrrolidin-1-yl)ethan-1-one]
pIC50 (human TLR8): 6.00 to 7.00
pIC50 (human TLR9): < 4.30
pIC50 (human TLR7): 6.00 to 7.00

COc1cc(-c2[nH]c3ccc(C4CCN(CC(C)(C)O)CC4)cc3c2C(C)C)nn2ncnc12 [Example 749, 1-(4-(3-isopropyl-2-(8-methoxy-[1,2,4]triazolo[1,5-b]pyridazin-6-yl)-1H-indol-5-yl)piperidin-1-yl)-2-methylpropan-2-ol]
pIC50 (human TLR8): > 7.00
pIC50 (human TLR9): 4.30 to 6.00
pIC50 (human TLR7): > 7.00

Cc1cc(-c2[nH]c3ccc(C4CCN(C5COC5)CC4)cc3c2C(C)C)cc2ccnn12 [Example 720, 5-(3-isopropyl-5-(1-(oxetan-3-yl)piperidin-4-yl)-1H-indol-2-yl)-7-methylpyrazolo[1,5-a]pyridine]
pIC50 (human TLR8): > 7.00
pIC50 (human TLR9): 4.30 to 6.00
pIC50 (human TLR7): > 7.00

COCCN1CCC(c2ccc3[nH]c(-c4ccc(C#N)c5ncccc45)c(C(C)C)c3c2)CC1 [Example 778, 5-(3-isopropyl-5-(1-(2-methoxyethyl)piperidin-4-yl)-1H-indol-2-yl)quinoline-8-carbonitrile]
pIC50 (human TLR8): > 7.00
pIC50 (human TLR9): 4.30 to 6.00
pIC50 (human TLR7): > 7.00

CCc1c(-c2c[nH]c3ncncc23)[nH]c2ccc(C3CCNCC3)cc12 [Example 241, 5-(3-ethyl-5-(piperidin-4-yl)-1H-indol-2-yl)-7H-pyrrolo[2,3-d]pyrimidine]
pIC50 (human TLR8): > 7.00
pIC50 (human TLR9): 4.30 to 6.00
pIC50 (human TLR7): > 7.00

Cc1nc[nH]c1CN1CCC(c2ccc3[nH]c(-c4ccnc5[nH]cnc45)c(C(C)C)c3c2)CC1 [Example 861, 7-(3-isopropyl-5-(1-((4-methyl-1H-imidazol-5-yl)methyl)piperidin-4-yl)-1H-indol-2-yl)-3H-imidazo[4,5-b]pyridine]
pIC50 (human TLR8): > 7.00
pIC50 (human TLR9): 6.00 to 7.00
pIC50 (human TLR7): > 7.00

CC(C)c1c(-c2ccnc3[nH]ncc23)[nH]c2ccc(C3CCNC(=O)C3)cc12 (stereo not drawn) [Example 248, 4-(3-Isopropyl-2-(1H-pyrazolo[3,4-b]pyridin-4-yl)-1H-indol-5-yl)piperidin-2-one]
pIC50 (human TLR8): > 7.00
pIC50 (human TLR9): < 4.30
pIC50 (human TLR7): 6.00 to 7.00

Cc1cc(-c2[nH]c3ccc(C4CCNCC4)cc3c2C(C)C)cn2c(C#N)cnc12 [Example 130, 6-(3-isopropyl-5-(piperidin-4-yl)-1H-indol-2-yl)-8-methylimidazo[1,2-a]pyridine-3-carbonitrile]
pIC50 (human TLR8): > 7.00
pIC50 (human TLR9): 4.30 to 6.00
pIC50 (human TLR7): 6.00 to 7.00

CNC(=O)CN1CCC(c2ccc3[nH]c(-c4cccn5ncnc45)c(C(C)C)c3c2)CC1 [Example 361, 2-(4-(2-([1,2,4]triazolo[1,5-a]pyridin-8-yl)-3-isopropyl-1H-indol-5-yl)piperidin-1-yl)-N-methylacetamide]
pIC50 (human TLR8): 6.00 to 7.00
pIC50 (human TLR9): 4.30 to 6.00
pIC50 (human TLR7): 6.00 to 7.00

COc1cc(-c2[nH]c3ccc(C4CCNCC4)cc3c2C(C)C)cc2nccn12 [Example 163, 7-(3-isopropyl-5-(piperidin-4-yl)-1H-indol-2-yl)-5-methoxyimidazo[1,2-a]pyridine]
pIC50 (human TLR8): 6.00 to 7.00
pIC50 (human TLR9): 6.00 to 7.00
pIC50 (human TLR7): 6.00 to 7.00
